{"source": "paper PMC10877733", "about": "“Discovery and Characterization of VU0542270, the First Selective Inhibitor of Vascular Kir6.1/SUR2B KATP Channels” (Molecular Pharmacology, 2024)", "key": {"[1]": {"target": "T1, Kir6.1/SUR2B (Homo sapiens, UniProt O60706)", "T1 construct": "expressed in transfected cells; also transiently transfected HEK293T", "T1 sequence (O60706 1-1549 isoform O60706-2, species assumed)": "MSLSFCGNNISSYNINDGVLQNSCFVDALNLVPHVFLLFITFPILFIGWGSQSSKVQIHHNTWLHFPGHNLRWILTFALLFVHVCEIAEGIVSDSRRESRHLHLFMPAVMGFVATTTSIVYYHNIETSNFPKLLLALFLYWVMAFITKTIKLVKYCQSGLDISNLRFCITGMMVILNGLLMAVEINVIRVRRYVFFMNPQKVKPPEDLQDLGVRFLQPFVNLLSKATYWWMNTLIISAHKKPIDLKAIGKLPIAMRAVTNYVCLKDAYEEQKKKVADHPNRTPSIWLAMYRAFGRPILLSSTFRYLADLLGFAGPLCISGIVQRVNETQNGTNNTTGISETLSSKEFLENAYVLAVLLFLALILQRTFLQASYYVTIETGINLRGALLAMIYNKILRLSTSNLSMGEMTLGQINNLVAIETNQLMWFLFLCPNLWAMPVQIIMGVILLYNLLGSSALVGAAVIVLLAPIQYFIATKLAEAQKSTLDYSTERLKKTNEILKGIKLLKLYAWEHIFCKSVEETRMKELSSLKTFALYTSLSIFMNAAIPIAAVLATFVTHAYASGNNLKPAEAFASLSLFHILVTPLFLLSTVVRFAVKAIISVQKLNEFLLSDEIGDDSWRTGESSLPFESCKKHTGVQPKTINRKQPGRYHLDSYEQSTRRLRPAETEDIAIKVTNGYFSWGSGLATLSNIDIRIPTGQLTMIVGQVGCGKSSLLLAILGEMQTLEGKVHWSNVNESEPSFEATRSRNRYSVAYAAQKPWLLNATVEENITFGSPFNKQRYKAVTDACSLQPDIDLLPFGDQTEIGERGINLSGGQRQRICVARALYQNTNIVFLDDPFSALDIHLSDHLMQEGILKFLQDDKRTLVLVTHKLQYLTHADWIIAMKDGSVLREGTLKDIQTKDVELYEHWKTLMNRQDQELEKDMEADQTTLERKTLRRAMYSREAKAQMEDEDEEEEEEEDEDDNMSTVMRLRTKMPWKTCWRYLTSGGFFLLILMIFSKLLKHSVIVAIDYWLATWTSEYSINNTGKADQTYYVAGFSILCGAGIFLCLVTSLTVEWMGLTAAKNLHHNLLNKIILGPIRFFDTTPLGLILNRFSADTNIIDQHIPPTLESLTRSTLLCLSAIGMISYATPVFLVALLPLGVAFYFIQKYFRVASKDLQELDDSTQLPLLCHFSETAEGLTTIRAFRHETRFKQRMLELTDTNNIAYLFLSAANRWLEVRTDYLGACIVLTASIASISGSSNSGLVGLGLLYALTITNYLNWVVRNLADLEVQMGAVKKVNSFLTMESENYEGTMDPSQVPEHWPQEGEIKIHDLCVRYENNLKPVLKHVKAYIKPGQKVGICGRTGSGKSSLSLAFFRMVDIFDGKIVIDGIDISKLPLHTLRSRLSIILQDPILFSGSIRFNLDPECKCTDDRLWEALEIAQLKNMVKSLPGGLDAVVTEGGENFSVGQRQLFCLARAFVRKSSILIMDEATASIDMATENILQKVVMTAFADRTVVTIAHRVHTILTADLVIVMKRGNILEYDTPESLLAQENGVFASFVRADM", "T1 sequence (Q15842 whole entry partner, species assumed)": "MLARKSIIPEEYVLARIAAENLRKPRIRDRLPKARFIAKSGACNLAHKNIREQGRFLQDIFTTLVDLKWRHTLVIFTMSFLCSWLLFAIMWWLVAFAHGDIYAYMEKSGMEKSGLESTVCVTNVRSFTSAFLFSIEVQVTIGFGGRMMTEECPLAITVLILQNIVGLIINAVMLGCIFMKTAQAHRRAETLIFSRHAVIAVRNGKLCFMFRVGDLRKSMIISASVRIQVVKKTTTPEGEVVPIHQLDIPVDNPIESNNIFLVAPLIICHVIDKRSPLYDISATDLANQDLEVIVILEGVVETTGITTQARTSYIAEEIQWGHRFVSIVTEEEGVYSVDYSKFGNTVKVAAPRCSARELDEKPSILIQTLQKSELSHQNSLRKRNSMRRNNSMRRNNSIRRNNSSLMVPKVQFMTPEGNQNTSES", "test": "Thallium flux assay of Kir6.1/SUR2B in HEK293 cells", "format": "cell-based", "details": "for Kir6.1/SUR2B inhibition, SAR in words: modification of the right side thiophene", "from_the_text": "The pcDNA3.1-SUR2B plasmid was generously provided by Dr. Colin Nichols (Washington University). […] Stably transfected tetracycline-regulated expression human embryonic kidney-293 (T-Rex-HEK293) cells expressing both plasmids were generated by cotransfecting cells with Lipofectamine LTX followed by antibiotic selection and clonal selection using the thallium flux assay described below. […] The cell culture media contained Dulbecco's modified Eagle's medium (Gibco, 11965-092) supplied with heat-inactivated FBS (bio-techne, Minneapolis, MN […],10%), Blasticidine HCl (Gibco, A11139-03, 10 ug/mL), Penicillin-Streptomycin (Gibco, 15140-122, 2 mM), G418 Sulfate (CORNING, Corning, NY, 30-234-CR, 1 mg/mL), and Hygromycin B (Invitrogen, Carlsbad, CA, 10687-010, 250 ug/mL). For selectivity assays, HEK293T cells were cotransfected with Kir6.x and SURX with Lipofectamine LTX and incubated for 48 hours before thallium flux assays. […] [[…] et al., 2019]). […] Dye-loaded cells were washed with assay buffer and transferred to a Panoptic Kinetic Imaging Plate Reader (Wavefront Bioscience, Franklin, TN). Control and test compound treatments were for 4 minutes prior to adding 0.5 mM chloride-free thallium stimulus buffer (Ion Bioscience) to initiate thallium flux. […] Selectivity assays against other Kir channels were performed essentially as described previously ([[…] et al., 2018]; [[…] al., 2022]). […] Data were acquired using Panoptic Software, Waveguide (Wavefront Biosciences). Raw fluorescence values were imported for analysis into custom software (VICB, Vanderbilt University). Fluorescence versus time values for each well were normalized to the initial fluorescence value [F/F0]. […] CRC data were plotted in GraphPad Prism (GraphPad Software, San Diego, CA) and fitted with a four-parameter logistic model to determine IC50 values for rank-ordering hit potency."}, "[2]": {"test_system": "isolated mouse ductus arteriosus vessels", "test": "Pressure myography of isolated ductus arteriosus vessels", "details": "term gestation mouse DA", "method": "CD-1 mice were maintained at Vanderbilt University Medical Center in accordance with protocols approved by the Institutional Animal Care and Use Committee. Timed matings were performed to produce offspring at specific stages of development. The presence of a vaginal plug was designated as embryonic day 1.\nTerm-gestation (embryonic day 19) fetal mouse DAs were isolated and mounted on glass pipet tips in microvessel perfusion chambers as previously reported ([Hooper et al., 2016]). Deoxygenated Krebs buffer was warmed to 37°C and circulated throughout the chamber. Vessels were pressurized in a stepwise manner to physiologic neonatal mouse mean arterial pressure (20 mmHg) and then challenged with 50 mM KCl to test reactivity. […] For dose-response studies, vessels were first dilated by circulating Krebs buffer bubbled with 95% nitrogen, 5% CO2 to mimic the hypoxic conditions of the womb. […] Following each dose, lumen diameters were allowed to plateau (approximately 20 minutes) before the next dose was added. Continuous lumen diameter measurements were recorded using a digital image capture system (IonOptix). An N of >6 vessels from at least three different litters was used for each experimental condition. Changes in lumen diameter are represented as the percent change in diameter compared with the baseline lumen diameter of vessels prior to drug exposure. […] Values represent mean ± S.D."}, "[3]": {"target": "T2, Kir6.2/SUR1 (Homo sapiens, UniProt Q09428)", "T2 construct": "expressed in transfected cells; also transiently transfected HEK293T", "T2 sequence (Q09428 whole entry, species assumed)": "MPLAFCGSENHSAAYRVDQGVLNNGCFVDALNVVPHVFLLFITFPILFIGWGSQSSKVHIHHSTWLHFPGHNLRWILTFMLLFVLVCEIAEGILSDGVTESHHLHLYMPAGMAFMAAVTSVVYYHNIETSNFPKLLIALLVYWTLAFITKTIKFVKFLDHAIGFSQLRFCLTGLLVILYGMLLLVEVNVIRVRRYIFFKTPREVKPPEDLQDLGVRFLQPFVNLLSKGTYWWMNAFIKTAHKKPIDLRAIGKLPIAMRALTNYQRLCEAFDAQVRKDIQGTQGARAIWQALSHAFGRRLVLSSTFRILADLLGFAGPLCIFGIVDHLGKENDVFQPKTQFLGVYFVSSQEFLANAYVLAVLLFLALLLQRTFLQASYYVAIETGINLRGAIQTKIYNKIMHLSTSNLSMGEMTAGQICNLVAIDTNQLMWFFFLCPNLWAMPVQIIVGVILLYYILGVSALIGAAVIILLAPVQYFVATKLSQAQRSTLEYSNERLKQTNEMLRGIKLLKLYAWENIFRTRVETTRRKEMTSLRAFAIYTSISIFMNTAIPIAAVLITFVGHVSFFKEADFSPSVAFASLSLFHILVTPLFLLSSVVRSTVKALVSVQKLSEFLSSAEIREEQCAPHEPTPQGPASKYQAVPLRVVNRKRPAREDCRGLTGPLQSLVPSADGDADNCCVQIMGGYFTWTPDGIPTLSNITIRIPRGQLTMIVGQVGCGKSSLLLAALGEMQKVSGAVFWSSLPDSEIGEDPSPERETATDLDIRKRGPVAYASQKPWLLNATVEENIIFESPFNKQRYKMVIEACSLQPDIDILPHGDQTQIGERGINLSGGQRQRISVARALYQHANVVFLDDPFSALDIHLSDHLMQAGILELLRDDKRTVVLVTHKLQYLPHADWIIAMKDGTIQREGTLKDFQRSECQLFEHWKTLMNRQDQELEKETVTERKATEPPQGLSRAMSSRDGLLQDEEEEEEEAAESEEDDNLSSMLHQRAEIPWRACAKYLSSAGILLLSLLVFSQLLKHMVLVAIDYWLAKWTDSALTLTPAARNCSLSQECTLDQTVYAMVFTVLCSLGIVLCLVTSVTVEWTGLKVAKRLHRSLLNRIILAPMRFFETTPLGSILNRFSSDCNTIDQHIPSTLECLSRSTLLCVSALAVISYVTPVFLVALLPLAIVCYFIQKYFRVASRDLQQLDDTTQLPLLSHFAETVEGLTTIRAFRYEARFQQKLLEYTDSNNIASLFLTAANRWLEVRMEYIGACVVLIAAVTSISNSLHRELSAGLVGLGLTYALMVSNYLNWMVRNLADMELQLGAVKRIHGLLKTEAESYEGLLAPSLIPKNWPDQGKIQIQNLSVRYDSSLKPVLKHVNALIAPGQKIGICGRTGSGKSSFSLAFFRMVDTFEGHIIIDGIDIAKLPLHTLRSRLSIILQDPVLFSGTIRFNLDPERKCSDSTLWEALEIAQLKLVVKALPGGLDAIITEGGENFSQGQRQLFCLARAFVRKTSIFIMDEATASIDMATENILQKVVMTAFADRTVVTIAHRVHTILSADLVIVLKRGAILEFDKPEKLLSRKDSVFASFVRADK", "T2 sequence (Q14654 whole entry partner, species assumed)": "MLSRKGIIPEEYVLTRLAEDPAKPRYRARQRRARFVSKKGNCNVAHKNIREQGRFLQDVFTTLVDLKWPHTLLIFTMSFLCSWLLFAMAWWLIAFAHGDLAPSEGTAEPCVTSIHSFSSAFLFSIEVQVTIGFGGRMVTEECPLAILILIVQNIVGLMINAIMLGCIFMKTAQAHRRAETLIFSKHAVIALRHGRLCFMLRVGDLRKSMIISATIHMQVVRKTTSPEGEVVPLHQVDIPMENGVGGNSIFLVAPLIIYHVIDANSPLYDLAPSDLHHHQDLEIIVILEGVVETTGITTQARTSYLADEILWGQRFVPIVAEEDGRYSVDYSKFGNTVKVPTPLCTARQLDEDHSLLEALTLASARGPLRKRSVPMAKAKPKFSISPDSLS", "test": "Thallium flux assay of Kir6.2/SUR1 in HEK293 cells", "format": "cell-based", "details": "T-Rex-HEK293-Kir6.2/SUR1 cells", "method": "The pcDNA3.1-SUR2B plasmid was generously provided by Dr. Colin Nichols (Washington University). The pcDNA5/TO-Kir6.1 plasmid was synthesized by GenScript. […] For selectivity assays, HEK293T cells were cotransfected with Kir6.x and SURX with Lipofectamine LTX and incubated for 48 hours before thallium flux assays.\nStable T-Rex-HEK293-Kir6.1/SUR2B cells or transiently transfected HEK293T cells were plated in polyamine-coated, clear-bottomed, black-walled 384-well plates and were cultured (37°C/5% CO2) overnight in Dulbecco’s modified Eagle’s medium (Gibco, Carlsbad, CA, 11995-065) containing 10% FBS (2 mM Penicillin-Streptomycin). The following day, cells were washed with assay buffer (i.e., Hanks’ balanced salt solution/20 mM HEPES) and loaded for 1 hour with thallium sensor dye Brilliant Thallium (Ion Bioscience, San Marcos, TX) at room temperature. Dye-loaded cells were washed with assay buffer and transferred to a Panoptic Kinetic Imaging Plate Reader (Wavefront Bioscience, Franklin, TN). Control and test compound treatments were for 4 minutes prior to adding 0.5 mM chloride-free thallium stimulus buffer (Ion Bioscience) to initiate thallium flux."}, "[4]": {"details": "pinacidil-activated, read-out: Kir6.1/SUR2B IC50"}}, "note": "Read-outs that look alike come from different tables or passages of the source."}
{"smiles": "Cc1nc(-c2ccccc2F)sc1CNC(=O)Nc1cccs1", "note": "[compound 5]", "values": [{"measurement": "IC50", "setting": "[1]; [4]", "result": 545, "unit": "nM"}]}
{"smiles": "Cc1nc(-c2cccs2)sc1CNC(=O)Nc1cccnc1", "note": "[compound 6]", "values": [{"measurement": "Kir6.1/SUR2B inhibition, SAR in words", "setting": "[1]", "result": "very weak"}, {"measurement": "IC50", "setting": "[1]; [4]", "result": 1620, "unit": "nM"}]}
{"smiles": "Cc1nc(-c2cccs2)sc1CNC(=O)Nc1ccncc1", "note": "[compound 7]", "values": [{"measurement": "Kir6.1/SUR2B inhibition, SAR in words", "setting": "[1]", "result": "very weak"}, {"measurement": "IC50", "setting": "[1]; [4]", "result": 12600, "unit": "nM"}]}
{"smiles": "O=C(NCc1cc(-c2ccncc2)n(C2CCCC2)n1)Nc1cccs1", "note": "[compound 8]", "values": [{"measurement": "IC50", "setting": "[1]; [4]", "result": 527, "unit": "nM"}]}
{"smiles": "Cn1nc(CNC(=O)Nc2cccs2)cc1-c1ccncc1", "note": "[compound 9]", "values": [{"measurement": "IC50", "setting": "[1]; [4]", "result": 6130, "unit": "nM"}]}
{"smiles": "Cn1nc(CNC(=O)Nc2cccc(C(F)(F)F)c2)cc1-c1ccncc1", "note": "[compound 10]", "values": [{"measurement": "IC50", "setting": "[1]; [4]", "result": 857, "unit": "nM"}]}
{"smiles": "O=C(NCC1(c2ccc(F)cc2)CC1)Nc1cccs1", "note": "[compound 11]", "values": [{"measurement": "IC50", "setting": "[1]; [4]", "result": 987, "unit": "nM"}]}
{"smiles": "Cn1nc(CNC(=O)Nc2cccs2)c2ccccc2c1=O", "note": "[compound 12]", "values": [{"measurement": "IC50", "setting": "[1]; [4]", "result": 780, "unit": "nM"}]}
{"smiles": "COc1ccc(Cl)cc1C(=O)NCCc1ccc(S(=O)(=O)NC(=O)NC2CCCCC2)cc1", "note": "[glibenclamide, reference compound]", "values": [{"measurement": "IC50", "setting": "[1]; transfected HEK-293 cells, pinacidil activation, read-out: Kir6.1/SUR2B IC50 (Fig. 4C)", "result": 115, "unit": "nM"}, {"measurement": "ductus arteriosus vessel constriction", "setting": "[2]; increasing concentrations, compound alone", "result": "constricted in a concentration-dependent manner"}, {"measurement": "ductus arteriosus vessel constriction in the presence of pinacidil", "setting": "[2]; with 10 µM pinacidil", "result": "substantially blunted vasoconstrictive effects"}]}
{"smiles": "CC(N/C(=N\\C#N)Nc1ccncc1)C(C)(C)C", "note": "(centres unmarked) [pinacidil, reference compound]", "values": [{"measurement": "effect on Kir6.2/SUR1 thallium flux (opening)", "setting": "[3]", "result": "no effect"}]}
